Laboratory results as given in US11149029B2, “Salts of IJAK inhibitors and methods of using the same” (AstraZeneca AB, priority 2018, dated 2021).
“And” between values parts separate entries of the source, which are not always exact repeats. Equal values may be shown once. Where a name gives a salt, the structure may show the parent alone.

Key:
[1] = Weight loss on heating from room temperature to 120° C.; format: physicochemical; conditions: heating from room temperature (RT) to 120° C.
Procedure: From the crystal structure (performed using single crystal X-ray diffraction, SXRD) of the free base compound of Formula (Ia), it was determined that the form was a non-stoichiometric hydrate.
Accordingly, a salt screen was performed and out of 20 counter ions tested, three salts (phosphoric, sulfuric and xinafoic salt) were scaled up (5 g) and further analysis was performed. […] (sulfuric salt) and 5.4% w/w RT−120° C. (phosphoric salt).
Screening was performed at Almac including over 110 solvent and non-solvent based screening experiments.

[2] = Gravimetric vapor sorption analysis (GVS), water absorption 0-80% relative humidity; format: physicochemical; conditions: for Water absorption 0-80% RH (% w/w): gravimetric vapor sorption
[3] = listed as free base compound of Formula (Ia)

Weight loss RT-120° C. (% w/w) [1] | Weight loss RT-120° C. (% w/w) [1, 3] | Hygroscopicity (in words) [2] | Water absorption 0-80% RH (% w/w) [2] | Water absorption 0-80% RH (% w/w) [2, 3] | Weight loss RT-120° C. (% w/w) ([1]; listed as xinafoate salt) | Water absorption 0-80% RH (% w/w) ([2]; listed as xinafoate salt) | SMILES
~5 % w/w | 5 % w/w | slightly hygroscopic | ~1.7 % w/w | 2 % w/w and 1.7 % w/w |  |  | COC[C@H](C(=O)Nc1cccc2c(-c3nc(Nc4cccc(S(C)(=O)=O)c4F)ncc3F)c[nH]c12)N1CCN(C)CC1 [Free base compound of Formula (Ia), (R)—N-(3-(5-fluoro-2-(2-fluoro-3-(methylsulfonyl)phenylamino)pyrimidin-4-yl)-1H-indol-7-yl)-3-methoxy-2-(4-methylpiperazin-1-yl)propanamide]
~0.2 % w/w |  | non-hygroscopic | ~0.2 % w/w |  | 0.2 % w/w | 0.2 % w/w | COC[C@H](C(=O)Nc1cccc2c(-c3nc(Nc4cccc(S(C)(=O)=O)c4F)ncc3F)c[nH]c12)N1CCN(C)CC1 [Xinafoate salt of compound of Formula (Ia)] [4-{(2R)-1-[(3-{5-fluoro-2-[2-fluoro-3-(methanesulfonyl)anilino]pyrimidin-4-yl}-1H-indol-7-yl)amino]-3-methoxy-1-oxopropan-2-yl}-1-methylpiperazin-1-ium; 1-hydroxynaphthalene-2-carboxylate]
